Assays:
[1] = test system: pyloric ligation induced Ulcer; experiment: Pyloric ligation induced ulcer model; format: in vivo, rats; settings: in respect to the protection of Omeprazole taken as 100%
Protocol: EXPERIMENT 5: EFFECT ON PYLORIC LIGATION INDUCED ULCER MODEL Method: 1. Animals were fasted for 24 hours in the raised mesh bottom cages to prevent coprophagia and were allowed free access to water. 2. The control group of rats was feed with the vehicle and the experimental groups with their respective drugs 45 minutes prior to the ligation. 3. The animal was anesthetized, abdomen was cut opened under xiphoid process, and the pyloric portion of the stomach was slightly lifted and ligated avoiding any damage to the adjacent blood vessels (According to the method of Shay et al. 1945). 4. The animals were stitched and kept for 4 hours with free access to water. 5. After 4 hours the animals were sacrificed under ether anesthesia and the stomach was dissected out incised along the greater curvature. 6. The stomach was washed thoroughly and the ulcer index was scored as per in other ulcer models.

[2] = test system: Aspirin induced ulcer model; experiment: Aspirin induced gastric ulcer model; format: in vivo, rats
Protocol: EXPERIMENT 2: EFFECT ON ASPIRIN INDUCED GASTRIC ULCER MODEL Method: Gastric ulceration was induced by aspirin according to the method of Djahanguiri (1969). Aspirin (150 mg/Kg.) was administered per orally as a suspension in gum-acacia and the animal was sacrificed 5 hr. after the aspirin treatment and the ulcer index with protection index were calculated.

[3] = test system: Cold Restraint Ulcer Model (CRU); experiment: Cold Restraint Ulcer (CRU) model; format: in vivo, rats
Protocol: EXPERIMENT 1: EFFECT ON COLD RESTRAINT ULCERS (CRU) MODEL METHOD: Adult rats of either sex, weighing 150-175 grams are fasted for 24 hours in metallic cages with raised mesh bottoms to prevent coprophagia and were allowed free access to water. The test drugs were administered 45 minutes before immobilizing the animals. The rats were immobilized in the restraint cage and kept at 4° C. in BOD incubator for 2 hours (According to the method of Senay and Levine 1967). The animals were sacrificed immediately after the restraint period. The abdomen was cut opened; stomach was taken out and incised along the greater curvature to observe the gastric lesions with the help of Magnascope (5× magnification) The following arbitrary scoring system was used to grade the severity and intensity of the lesions: 1. Shedding of epithelium=10 2. Petechial and frank hemorrhages=20 3. One or two ulcers=30 4. More than two ulcers=40 5. Perforated ulcers=50 The presence of any of these lesions was considered as a positive ulcerogenic response which has been shown as percentage of rats showing gastric lesions. The severity of ulcers is expressed in terms of ulcer index, which is the mean score of gastric lesions of all the rats in a group. The term Ulcer Index is defined as: Ulcer Index (U. I.)=Us+Up×10−1 where Us=Mean severity of ulcer score and Up=Percentage of animals with Ulcer incidences. The percentage protection is calculated as follows: Percentage protection=(C−T/C)×100. where C=Number of animals showing ulcer response in control group and T=Number of animals showing ulcer response in test group.

[4] = test system: histamine induced duodenal ulcer; experiment: Histamine induced duodenal ulcer model; format: in vivo, Guinea pig
Protocol: EXPERIMENT 3: EFFECT ON HISTAMINE INDUCED ULCER MODEL Method:
1. Animals were fasted for 24 hours with access to water.
2. The drug was given orally 1 hour prior to the histamine administration.
3. Histamine was administered in a dose of 0.25 mg/Kg, i. m. at 30 minutes interval for 7 times and it induced 100% duodenal ulceration in guinea pig (According to the method of Watt and Eagleton 1964).
4. The animals were sacrificed after half an hour of last injection under ether anesthesia.
5. The stomach along with duodenum were removed washed thoroughly and examined for the lesions. Ulcer index and protection index were calculated.

[5] = test system: Ethanol Induced Ulcer Model; experiment: Alcohol (ethanol) induced gastric ulcer model; format: in vivo, rats; settings: in respect to the protection of Omeprazole taken as 100%
Protocol: EXPERIMENT 4: EFFECT ON ALCOHOL INDUCED GASTRIC ULCERS IN RATS Method: 1. Adult rats of either sex were taken; weighing 150-175 grams were fasted for 24 hours with free access to water.
2. The test drugs were administered (p. o.) 45 minutes before alcohol administration.
3. 1 ml of chilled absolute alcohol was administered (p. o.) to the rats (According to the Wittetal).
4. Immediately after 1 hour, the animals were anesthetized, abdomen was cut opened stomach was taken out and incised along the greater curvature to observe the gastric lesions.
The ulcers are examined under the 5× magnification with the help of magnascope. Absolute ethanol lesions appears as blackish lesions grouped in patches of varying size, usually parallel to the major axis of the stomach.
5. The lengths of the lesions are measured and summated to give a total lesion score, then calculated and expressed in percentage.

[6] = 10 mg/Kg, standard, protection taken as 100%

With COc1ccc2[nH]c([S+]([O-])Cc3ncc(C)c(OC)c3C)nc2c1 (stereo not drawn) [Omeprazole] as the compound, how does the “PROTECTION (Percentage protection)” value [1] read?
Its value is 100%.

What about the PERCENTAGE PROTECTION [2, 6] of the same compound?
The PERCENTAGE PROTECTION was 100%.

What about the “Ulcer severity (type of lesions) Scores (No. of rats showing lesions/No. of rats tested) 10” value ([2]; 10 = Shedding of epithelium, Omeprazole 20 mg/Kg, Aspirin 150 mg/Kg p.o.) of the same compound?
Its value is 2/6.

What about the “Ulcer severity (type of lesions) Scores (No. of rats showing lesions/No. of rats tested) 20” value ([2]; 20 = Petechial and frank hemorrhages, Omeprazole 20 mg/Kg, Aspirin 150 mg/Kg p.o.) of the same compound?
The value was 1/6.

What about the “Percentage of ulcer incidence (No. of rats showing ulcer/total No. of rats used)” value ([2]; Omeprazole 20 mg/Kg) of the same compound?
The value was 50 (3/6) %.

And the “PERCENTAGE PROTECTION” value [3, 6]?
Its value is 100%.

And the “Ulcer severity (type of lesions) Scores (No. of rats showing lesions/No. of rats tested) 10” value ([3]; 10 = Shedding of epithelium, Omeprazole 10 mg/Kg, p.o.)?
The value was 3/10.

And the “Ulcer severity (type of lesions) Scores (No. of rats showing lesions/No. of rats tested) 20” value ([3]; 20 = Petechial and frank hemorrhages, Omeprazole 10 mg/Kg, p.o.)?
Its value is 2/10.

What about the “Volume of gastric fluid” value ([4]; Omeprazole 10 mg/Kg, p.o.) of the same compound?
Its value is 1.0 ± 0.2 mL.

And the “PERCENTAGE PROTECTION” value ([4]; in respect to the protection of Omeprazole taken as 100%)?
Its value is 100%.

And the “Ulcer severity (type of lesions) Scores (No. of Guinea pig showing lesions/No. of Guinea pig tested) 20” value ([4]; score 20, Omeprazole 10 mg/Kg, p.o.)?
Its value is 1/3.

And the “PROTECTION (Percentage protection)” value [5]?
The value was 100.0%.
